“Also recorded” adds a separate entry of the source. Where two headings read alike, the source gives them in different places.
Experiments:
sigma receptor [1] = target: sigma receptor (Cavia porcellus, UniProt Q60492); assay: biochemical
[2] = target: T1, sigma receptor from guinea pig brain (Cavia porcellus, UniProt Q60492); assay: [3H]AZ-DTG binding and photoaffinity labeling of the sigma receptor
T1 construct: from tissue; host or cells: guinea pig brain membranes
Protocol: (§1) The filters were then irradiated with long-wavelength UV light for a 15 minute period. Filter-bound proteins were solubilized with 50 mM Tris pH 7.4, 0.1% sodium dodecyl sulfate. Solubilized proteins were subjected to SDS-polyacrylamide gel electrophoresis.

[3] = system: mu, delta and kappa receptors; conditions: cited from earlier work
sigma receptor [4] = assay: [3H]DTG displacement radioligand binding assay, guinea pig brain membranes
sigma receptor [5] = assay: (+)[3H]3-PPP saturation binding, guinea pig brain membranes
Protocol: For radioreceptor assays aliquots of the frozen membrane suspension were thawed and diluted tenfold with 50 nM Tris/HCl buffer, pH 7.4. […] The protein concentration in the 1 ml final incubation volume was 800 ug, corresponding to 32 mg of brain tissue (original wet weight). […] After incubation for 90 minutes at room temperature the membrane suspension was rapidly filtered under vacuum through Whatman GF/B glass fiber filters using a Brandel 48 well cell harvester (Brandel, Gaithersburg, Md.). […] The filters were dissolved in 10 ml each of Cytoscint (Westchem Products, San Diego, Calif.) and radioactivity was measured by liquid scintillation spectrometry at a counting efficiency of 35-50%.

[6] = system: D2 class of striatal dopamine receptors; conditions: cited from earlier work
[7] = system: dopamine-stimulated cAMP production; conditions: in vitro; cited from earlier work
sigma receptor [8] = conditions: cited from earlier work
[9] = system: D1 subclass of dopamine receptors; conditions: cited from earlier work
[10] = system: adrenergic, muscarinic, cholinergic, or histaminergic sites; conditions: cited from earlier work
rats = conditions: rat, in vivo; cited from earlier work
rhesus monkeys = conditions: introduction of foreign objects into cages; cited from earlier work
[11] = system: rats trained to discriminate cyclazocine; conditions: same concentrations; Holtzman, private communication; cited from earlier work
PCP receptor = conditions: Tam, personal communication; cited from earlier work
anxiety behavior of mice [12] = assay: black:white test box (light/dark exploration) of mice
[13] = target: sigma receptor from guinea pig brain; assay: [3H]AZ-DTG binding and photoaffinity labeling of the sigma receptor; conditions: in the dark; brain membranes
Protocol: as §1

sigma receptor [14] = assay: [3H]DTG saturation binding / binding characteristics, guinea pig brain membranes; conditions: for binding to sigma receptor sites (words): guinea pig brain membrane homogenates and slide-mounted rat and guinea pig brain sections
Protocol: Values obtained were the mean of quadruplicate determinations.
Frozen guinea pig brains (Pel-Freeze, Rogers, Ariz.) were homogenized in 10 volumes (w/v) of 0.32M sucrose using a Polytron homogenizer. The homogenate was spun at 900×g for 10 minutes at 4° C. The supernatant was collected, and spun at 22,000×g for 20 minutes at 4° C. The pellet was resuspended in 10 volumes of 50 mM Tris/HCl buffer, pH 7.4, incubated at 37° C. for 30 minutes and spun again at 22,000×g for 20 minutes at 4° C. The pellet was then resuspended in 10 volumes of 50 mM Tris/HCl buffer, pH 7.4 and 10 ml aliquots of this membrane suspension were stored frozen at -70° C. until used in the binding assay.
For radioreceptor assays aliquots of the frozen membrane suspension were thawed and diluted tenfold with […] Tris/HCl buffer, pH 7.4. […] The protein concentration in the 1 ml final incubation volume was 800 ug, corresponding to 32 mg of brain tissue (original wet weight). […] After incubation for 90 minutes at room temperature the membrane suspension was rapidly filtered under vacuum through Whatman GF/B glass fiber filters using a Brandel 48 well cell harvester (Brandel, Gaithersburg, Md.). The filters were washed with 3×5 ml ice-cold […] Tris buffer (pH 7.4 at room temperature). The filters were dissolved in 10 ml each of Cytoscint (Westchem Products, San Diego, Calif.) and radioactivity was measured by liquid scintillation spectrometry at a counting efficiency of 35-50%. Saturation data were evaluated by Scatchard analysis using both the EBDA NcPherson, G. A., Computer Programs Biomed.

[15] = system: sigma site in brain sections; assay: receptor autoradiography of [3H]DTG binding, brain sections; design: species or system guinea pig and rat; conditions: 2 nM [3H]DTG
Protocol: Male Sprague Dawley rats (200-250 g) and NIH guinea pigs (300-350 g) were sacrificed, their brains rapidly removed and processed for receptor autoradiography according to the method of Herkenham et al. J. Neuroscience 2:1129-1149 (1982).
Incubations were terminated by 4×2 minute washes in […] Tris-HCl (pH 7.4, 4° C.) with 1 mg/ml BSA, rapidly dried under a stream of cool air and placed in x-ray cassettes with ^3 H-sensitive film (^3 H-ultrofilm, LKB). Films were developed 6-8 weeks later (D-19, Kodak).

anxiety behavior of mice [16] = conditions: mouse, in vivo, ip, 10 mg/kg
[17] = system: social interaction of rats; assay: rat social interaction test; format: in vivo, rat (male Hooded Lister); conditions: i.p.; 10 min session; n=6, P<0.001
From the text: A second preferred animal model is the rat social interaction test described by Jones, B. J. et al., supra, wherein the time that two mice spend in social interaction is quantified. […] Both the familiarity and the light level of the test arena may be manipulated. Undrugged rats show the highest level of social interaction when the test arena is familiar and is lit by low light. Social interaction declines if the arena is unfamiliar to the rats or is lit by bright light. Anxiolytic agents prevent this decline. The overall level of motor activity may also be measured to allow detection of drug effects specific to social behaviors.
Male Hooded Lister rats (Glaxo bred, 200-250 g), were housed 5 to a cage and were kept in the laboratory environment for at least a week before testing. Rats paired in the test were taken from separate cages.
The test arena consisted of an open-topped box, 62×62×33 cm with a 7×7 matrix of infra-red photocell beams in the walls, 2.5 cm from the floor.
Testing involved placing each member of a pair of rats in opposite comers of the arena and then leaving them undisturbed for 10 min. while recording their behavior remotely on videotape. The behavioral assessments were made subsequently from the recordings. The time spent in social interaction was measured and expressed as a cumulative total for the 10 min session. The behaviors that comprised social interaction were: following with contact, sniffing (but not sniffing of the hindquarters), crawling over and under, tumbling, boxing and grooming.

dopamine synthesis = conditions: cited from earlier work
anxiety = conditions: in vivo; cited from earlier work
[18] = system: dopamine-stimulated production of cAMP; conditions: homogenates of rat striatum and olfactory tubercle; cited from earlier work
[19] = system: apomorphine-induced mesolimbic behaviors; conditions: without altering the intensity of stereotypic behaviors; cited from earlier work

T1 sequence (Q60492 whole entry): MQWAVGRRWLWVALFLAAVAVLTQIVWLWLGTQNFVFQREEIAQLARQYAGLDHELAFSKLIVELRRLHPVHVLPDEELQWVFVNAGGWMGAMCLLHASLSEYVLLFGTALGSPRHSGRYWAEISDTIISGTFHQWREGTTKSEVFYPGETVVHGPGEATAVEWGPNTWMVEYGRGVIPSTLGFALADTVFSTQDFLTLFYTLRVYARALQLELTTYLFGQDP
sigma receptor (Cavia porcellus, UniProt Q60492), sequence (Q60492 whole entry): as above

CCCN1CCCC(c2cccc(O)c2)C1 (single isomer, unassigned; (+)) [(+)3-PPP, 3-(3-hydroxyphenyl)-N-(1-propyl)-piperidine, reference compound]
IC50 (sigma receptor [1]): 33 ± 12 nM
effect on [3H]AZ-DTG labeling of the 29 kD polypeptide ([2]; 10 uM): completely blocked

C=CCN1CCC2(C)c3cc(O)ccc3CC1C2C (single isomer, unassigned; (-)) [(-)SKF 10,047, N-allyl-normetazocine, reference compound]
binding to delta, mu and kappa receptors [3]: apparently labeled the mu and kappa receptors but not the sigma receptors
IC50 (sigma receptor [4]; read-out: IC50 binding values): 4 ± 0.566 µM
IC50 (sigma receptor [4]; read-out: IC50 vs. [3H]DTG): 4 µM

CCCN1CCC[C@H](c2cccc(O)c2)C1 [(+)[^3 H]3-PPP, (+)[^3 H]3-(3-hydroxyphenyl)-N-(1-propyl)-piperidine]
Bmax (sigma receptor [5]): 80 pmol/g fresh brain weight
Kd (sigma receptor [5]): 30 nM

OC(CCCN1CCN(c2ncc(F)cn2)CC1)c1ccc(F)cc1 (stereo not shown) [BMY 14802]
maximal density of [3H]spiperone-labeled D2 site ([6]; chronic administration (20 days) to rats): did not increase the maximal density
inhibition of [3H]spiperone binding to D2 [6]: does not inhibit the binding of [^3 H]spiperone
inhibition of dopamine-stimulated cAMP production [7]: does not inhibit dopamine-stimulated cAMP production
binding to the sigma receptor (sigma receptor [8]): binds with relatively high affinity to the sigma receptor
potency of dextrorotatory vs levorotatory enantiomer at inhibiting sigma binding (sigma receptor [8]): 10 times
interaction with D1 subclass / inhibition of [3H]SCH 23390 binding in vitro [9]: does not appear to interact with the D1 subclass of dopamine receptors
binding to adrenergic, muscarinic, cholinergic, or histaminergic sites [10]: does not bind to the adrenergic, muscarinic, cholinergic, or histaminergic sites
catalepsy (rats): did not cause catalepsy in rats

O=C1CC2(CCCC2)CC(=O)N1CCCCN1CCN(c2ncccn2)CC1 [Buspirone]
taming of the aggressive response (rhesus monkeys): efficacy in a predictive animal model

Cc1ccccc1NC(=N)Nc1ccccc1C [DTG, N,N'-di-(2-methylphenyl)guanidine]
substitution for cyclazocine [11]: fully substitutable for cyclazocine
activity in [3H]-PCP binding assay (PCP receptor): virtually inactive
in vitro [3H]DTG displacement activity (sigma receptor [4]): found to possess the aforesaid in vitro [^3 H]DTG displacement activity
anxiolytic activity (anxiety behavior of mice [12]; s.c.): does not exhibit anxiolytic activity
rears, crossings, % time in the black compartment (anxiety behavior of mice [12]; s.c., concentrations tested): did not affect significantly

Cc1ccccc1NC(=N)Nc1ccc(N=[N+]=[N-])cc1C [[^3 H]AZ--DTG, [^3 H]-m-azido-1,3-di-o-tolylguanidine]
size of polypeptide selectively labeled ([2]; fluorography of SDS-PAGE gels after UV irradiation): 29 kD
Kd [13]: 28 nM

[3H]c1ccc(NC(=N)Nc2ccc([3H])cc2C)c(C)c1 [[^3 H]DTG, N,N'-di-(4-[^3 H]-2-methylphenyl)-guanidine]
specific binding, % of total binding (sigma receptor [14]): 90-97%
total binding (sigma receptor [14]; 0.9 nM [3H]DTG): 2700 cpm
nonspecific binding (sigma receptor [14]; 0.9 nM [3H]DTG, 10 uM DTG or 10 uM haloperidol): 50-150 cpm
abolition of specific binding by boiling of membranes (sigma receptor [14]; 100° C. for 10 minutes prior to assay): 90%
reversibility of binding (sigma receptor [14]; after addition of 10 uM unlabeled DTG): fully reversible
binding to sigma receptor sites (words) (sigma receptor [14]): binds specifically and with high affinity to a single class of binding sites; also recorded: bound specifically, saturably, reversibly, and with high affinity
binding to sigma receptor sites (words) (sigma receptor [14]; listed as [^3 H]--DTG): binds reversibly, saturably, selectively and with high affinity
maximum number of binding sites (Bmax) (sigma receptor [14]; original wet weight): 85 pmol/g brain tissue
time to binding equilibrium (sigma receptor [14]; room temperature): 60 to 90 min
specific binding of total [3H]DTG binding (sigma receptor [4]): > 90%
distribution/density of [3H]DTG binding [15]: low density of specific binding diffusely distributed throughout the gray matter; also recorded: heterogeneous distribution of enriched binding in limbic and sensorimotor structures; also recorded: Very dense binding was seen in the choroid plexus; also recorded: very dense binding was found in the subcommissural organ; also recorded: The oculomotor nucleus, and more caudally, the trochlear nucleus were very densely labeled; also recorded: In the hindbrain the locus coeruleus was the most densely labeled nucleus

CN1C(=O)CN=C(c2ccccc2)c2cc(Cl)ccc21 [diazepam, reference compound]
sedation: numbers of rears and line crossings (anxiety behavior of mice [16]): decreased significantly showing that the drug was markedly sedative
time spent in social interaction [17]: significantly increased social interactions
displacement of [3H]DTG (sigma receptor [4]): no significant displacement
numbers of line crossings and/or rears in the light compartment (anxiety behavior of mice [12]; mouse, in vivo, ip): increased at the expense of those in the dark compartment
proportion of time in light area / percentage of time in black compartment (anxiety behavior of mice [12]; mouse, in vivo, ip): dose-dependently increased the proportion of time the mice spent in the larger, lighted area

C[C@@H]1CN(CCCn2c3ccccc3c3ccccc32)C[C@H](C)N1.Cl.Cl [rimcazole, cis-9-[3-(3,5-dimethyl-1-piperazinyl)propyl]carbazole dihydrochloride]
effect on rate of dopamine synthesis (dopamine synthesis): does not accelerate the rate of dopamine synthesis
anxiolytic activity (anxiety): determined to have anxiolytic activity
effect on dopamine-stimulated cAMP [18]: does not affect dopamine-stimulated production of cAMP
antagonism of apomorphine-induced mesolimbic behaviors [19]: ability to antagonize apomorphine-induced mesolimbic behaviors selectively

Source: patent US5574070A, “Substituted guanidines having high binding to the sigma receptor and the use thereof” (priority 1993, dated 1996)
